According to patent publication US7572827B2, “Use of angelicin and of its structural analogues for the treatment of thalassemia” (Universita' Degli Studi Di Ferrara, priority 2002, dated 2009):

Key:
human cell line K562 [1] = experiment: Erythroid differentiation of K562 cells (benzidine-positive cells); format: cell-based; conditions: for Erythroid differentiation (%) = percentage of K562 cells that react positively to benzidine: optimal concentration of each compound (cytosine arabinoside 1 μM, bergapten 200 μM, angelicin 400 μM), six experiments, control 3-4
Protocol: (§1) The biological activity of angelicin was evaluated by examining the capacity of that compound to modulate the expression of genes for gamma-globin in the human cell line K562, which is capable of differentiating in the erythroid manner by expressing genes for gamma-globin if subjected to treatment with modifiers of the biological response that are suitable for the purpose (3, 18, 19).
(§2) The level of differentiation was evaluated by analyzing the positive reaction of the cells to benzidine (3). The production of haemoglobin was evaluated by electrophoresis on cellulose acetate and by colouring the gel with a solution based on benzidine/H2O2 (3). The expression of the genes encoding for gamma-globin was evaluated by quantitative RT-PCR (reverse transcriptase PCR) (3).

[2] = tested on: gamma-globin mRNA in K562 cells; experiment: Gamma-globin mRNA accumulation in K562 cells by quantitative RT-PCR; format: cell-based, human; conditions: K562 cells treated for 6 days, cytosine arabinoside 1 μM, bergapten 200 μM, angelicin 400 μM, control = 1
Protocol: as §1, §2

[3] = tested on: gamma-globin mRNA in human erythroid precursors; experiment: Gamma-globin mRNA accumulation in human erythroid precursors isolated from peripheral blood (Fibach two-stage culture), quantitative RT-PCR; format: cell-based; conditions: for Gamma-globin mRNA, increase compared with untreated control erythroid precursors: human erythroid precursors, angelicin 500 μM, hydroxyurea 120 μM, control = 1, quantitative RT-PCR
From the text: In order to check whether angelicin was also capable of stimulating the production of mRNA for gamma-globin in human erythroid precursors isolated from peripheral blood, the technique published by Fibach et al. (20, 21) was used. This technique provides for two stages: in the first stage, the cells isolated from peripheral blood of a subject who is healthy or suffering from a haemopoietic pathology, such as sickle cell anaemia or beta-thalassaemia, are sown in a culture medium to which 10% of conditioned medium derived from the vesicle carcinoma cell line 5637 has been added. The second stage consists in cultivating the isolated cells in a suitable culture medium, supplemented by the erythropoietin hormone, 30% bovine foetal serum, 2-mercaptoethanol, albumin, glutamine and desamethasone in order to permit the proliferation and maturing of stem cells of the erythroid type. In this stage the cells can be treated with potential HbF inducers.

human cell line K562 [4] = experiment: Haemoglobin production in K562 cells (cellulose acetate electrophoresis, benzidine/H2O2 staining); format: cell-based; conditions: 400 μM angelicin for 6 days
Protocol: as §2

| SMILES | Erythroid differentiation (%) = percentage of K562 cells that react positively to benzidine (human cell line K562 [1]) | percentage of K562 cells that react positively to benzidine (human cell line K562 [1]; angelicin 400 μM, 6 days, control K562 cells 3-4%) | Gamma-globin mRNA, increase compared with untreated control K562 cells [2] | increase in the production of mRNA for gamma-globin compared with the same untreated cells ([3]; human erythroid precursors from peripheral blood treated with angelicin) [times] | Gamma-globin mRNA, increase compared with untreated control erythroid precursors [3] | chief haemoglobin produced (human cell line K562 [4]) |
| --- | --- | --- | --- | --- | --- | --- |
| O=c1ccc2ccc3occc3c2o1 [angelicin] | 55-60% | 55-60% | 44.94 | 20.53 | 20.53 | Hb Portland (alpha2gamma2) |
| COc1c2ccoc2cc2oc(=O)ccc12 [bergapten, 5-methoxypsoralen] | 50-60% |  | 3.48 |  |  |  |
| Nc1ccn([C@@H]2O[C@H](CO)[C@@H](O)[C@@H]2O)c(=O)n1 [cytosine arabinoside, reference compound] | 75-80% |  | 3.24 |  |  |  |
| NC(=O)NO [hydroxyurea, reference compound] |  |  |  |  | 6.96 |  |
